pIC50: −log10 of the molar value. Structures can show the parent of a compound that is named as a salt.
Tests used:
5-HT, rat fundus strip = assay: 5-HT antagonism, rat fundus strip; conditions: Rattus norvegicus, 10 min, read-out: 5HT rat-fundus-strip IC50
Method: 5-HT antagonism, rat fundus strip
5-hydroxytryptamine (5-HT).
Rats are killed by a blow on the head and exsanguinated. The stomach fundus is removed and carefully cleaned with Krebs solution at 30° C. The fundus is then stretched over a rounded end of a plastic rod about the thickness of a pencil, whereby the longitudinal direction of the muscle fibers is visible. The fundus is halved by carefully cutting in the central line and in the direction of these fibres. Along this incision two strips with a length of 15-25 mm and with width 1.5-2.5 mm are cut, one from each half of the fundus. The mucosa is then carefully removed. A thread is attached to each end of a strip. One thread is fixed to a pin in the bottom of the organ bath and the other thread is fixed to an isotonic transducer. The strip is kept under a tone of 1.5 to 2.0 g. […] Concentration response curves to 5-HT are obtained by adding 5-HT to the bath in increasing concentrations (0.1 ml of 10^-9 M resulting in 1.0×10^-11 M in the bath, 0.2 ml of 10^-9 M resulting in 3.0×10^-11 M, 0.1 ml of 10^-8 M resulting in about 1×10^-10 M, 0.2 ml of 10^-8 M resulting in about 3×10^-10 M--0.2 ml of 10^-4 resulting in about 3×10^-6 M in the bath). Each concentration of 5-HT is allowed to exert its maximal effect (1-10 min) before the next is added. When the maximal response is reached the tissue is carefully washed. The test substance is added to the bath for 10 min. before examining its effect on a new cumulative 5-HT concentration response curve. From the control concentration effect curve the Km for 5-HT is calculated.
The results are recorded as mean percentage inhibition.
Substrate concentration for 5-HT: 1.0×10^-9 M to 1.0×10^-8 M.
Michaelis-Menten constant for 5-HT is estimated each time.

5-HT2 receptors = target: T1, 5-HT2 receptors (Rattus norvegicus, UniProt P14842); assay: 3H-spiroperidol binding to rat cortical membranes (5-HT2 receptors); conditions: Table 1, read-out: 3H-Spiroperidol bindings 5-HT2 receptors IC50
T1 construct: Whole cortex is dissected out and homogenized; from tissue; host or cells: rat whole cortex membranes
Method: ^3 H-spiroperidol binding to rat cortical membranes (5-HT2 Receptors)
50 mM Tris buffer pH 7.7 (at 25° C.) (icecold) stored in the cold: 7.38 gram Trisma®--7.7/l.
Mixed Tris buffer (icecold) made fresh every day jut before use.
10^-5 M Mianserin: 3.01 mg mianserin-HCl/10 ml H2 O, Diluted 1:100.
3×10^-6 M Sulpiride: 3.41 mg sulpiride/10 ml H2 O, Diluted 0.3 ml to 100 ml.
Whatman GF/B filters 25 mm.
Spiroperidol[benzene ring--^3 H--] approx. 30 Ci/mmol from New England Nuclear
(Diluted daily to 5 nM in 3×10^-6 M sulpiride solution).
Ultra Turrax homogenizer.
(§1) Rats are killed by guillutination, exsanguinated and their brains removed. Whole cortex is dissected out and homogenized (Ultra Turrax, 10 sec.) in 100 vol (w/v) icecold 50 mM buffer pH 7.7 (at 25° C.). The homogenate is centrifuged twice at 20.000 g (13.000 rpm) for 10 min. at 4° C., with rehomogenization (Ultra Turrax, 10 sec.) of the intermediate pellet in fresh buffer. The pellet is homogenized (Ultra Turrax, 10 sec.) in 80 volumes (w/v) of icecold, freshly prepared mixed Tris buffer.
(§2) Incubation tubes in triplicate receive on ice 100 μl of drugs dissolved in water, 100 μl of 5 nM ^3 H-spiroperidol and 800 μl of the cold membrane suspension. The tubes are incubated at 37° C. for 10 min. and rapidly filtered under vacuum through Whatman GF/B filters. The tubes are rinsed with 5 ml and thereafter the filters with 2×5 ml icecold 50 mM Tris buffer, pH 7.7 (at 25° C.). The radioactivity on the filters is determined by liquid scintillation counting after the addition of 5 ml of picofluor-15. The unspecific binding of ^3 H-spiroperidol is determined by incubating the samples with 10^-6 M mianserine.
Each series consist of 15-16 triple samples (3 controls, 2-3 containing 10^-6 mianserine and two series of test compounds in 5 concentrations).
The means of the control samples and of the 10^-6 M mianserine samples are calculated.

methylphenidate = assay: Methylphenidate antagonism, mice i.p.; format: in vivo; conditions: Mus musculus, ip, read-out: MePh Antag. ED50 (ip)
Method: Methylphenidate antagonism (ED50 μmol/kg i.p.)
Perspex observation cages without bottom and lid, consisting of 5 sections each measuring 12×25×30 cm.
Two hours after injection of test substance, methylphenidate, 60 mg/kg, is injected s.c. After administration of methylphenidate the mice are placed in the observation cages, 2 in each cage, where they remain for exactly 1 hour. The cages are placed on corrugated paper, the corrugations facing upwards. It is examined whether the mice have been biting the corrugated paper or not.
The result is stated in fractions: 0/3, 1/3, 2/3 and 3/3 where 0, 1, 2 and 3 are the number of pairs which have not been biting on receipt of the dose in question.

[1] = Catalepsy wire mesh, rat, max.; format: in vivo, rats; conditions: Rattus norvegicus, po, 6 h, read-out: Catalep. ED50 (po)
Method: Catalepsy wire mesh, rat, max. (ED50 μmol/kg p.o.)
A vertical wire netting (50 cm×49 cm). The meshes (openings) of the netting are square (1 cm×1 cm). The wire diameter is 2 mm.
The animals are labeled and used in groups of five. The test substance is administered orally (p.o.) at 4 dose levels selected from a fixed dose scale.
The animals are placed in the middle of the vertical wire netting 60, 120, 180, 240, 300 and 360 minutes after administration of the test compound. The animals are considered cataleptic when they remain immobile during a period of 15 seconds. This cataleptic reaction is designated +.
If the rats are "atonic" and passively slide down the wire mesh they are considered not cataleptic. If the animals climb up and down the wire mesh they are nor cataleptic. In both situations the designation - is used.

D-2 receptors = target: T2, D-2 receptors (Rattus norvegicus, UniProt P61169); assay: 3H-spiroperidol binding to rat striatal membranes (D-2 receptors); conditions: Table 1, read-out: 3H-Spiroperidol bindings DA-2 receptors IC50
T2 construct: The corpora striata are dissected out and homogenized; from tissue; host or cells: rat corpus striatum membranes
Method: 3H-spiroperidol binding to rat striatal membranes (D-2 receptors)
0.1% Ascorbic acid (icecold) made fresh every day
50 mM Tris buffer pH 7.7 (at 25° C.) (icecold) stored in the cold
50 mM Tris buffer pH 7.5 (at 25° C.), containing 0.2% ascorbic acid
(icecold) made fresh every day just before use
Mixed Tris buffer (icecold) made fresh every day just before use
96 ml 50 mM Tris pH 7.5 (at 25° C.) containing ascorbic acid
Whatman GF/B filters 25 mm
Spiroperidol[benzene ring-^3 H] approximately 30 Ci/mmol
from New England Nuclear. (Diluted daily to 5 nM in 0.1% ascorbic acid)
as §1, with “The corpora striata are” for “Whole cortex is”, “min” for “min.”, “200” for “80”
as §2, with “0.1% ascorbic acid,” for “water,”, “nM^3” for “nM ^3”, “tissue suspension .” for “membrane suspension.”, “min” for “min.”, “scintillation liquid (e.g. picofluor-15).” for “5 ml of picofluor-15.”, “10^-6M (+)butaclamol.” for “10^-6 M mianserine.”
Each series consists of 15 triple samples (3 controls, 2 containing 10^-6M (+)butaclamol, and two series of test compounds in 5 concentrations).
The means of the controls and (+)butaclamol are calculated.

T2 sequence (P61169 whole entry): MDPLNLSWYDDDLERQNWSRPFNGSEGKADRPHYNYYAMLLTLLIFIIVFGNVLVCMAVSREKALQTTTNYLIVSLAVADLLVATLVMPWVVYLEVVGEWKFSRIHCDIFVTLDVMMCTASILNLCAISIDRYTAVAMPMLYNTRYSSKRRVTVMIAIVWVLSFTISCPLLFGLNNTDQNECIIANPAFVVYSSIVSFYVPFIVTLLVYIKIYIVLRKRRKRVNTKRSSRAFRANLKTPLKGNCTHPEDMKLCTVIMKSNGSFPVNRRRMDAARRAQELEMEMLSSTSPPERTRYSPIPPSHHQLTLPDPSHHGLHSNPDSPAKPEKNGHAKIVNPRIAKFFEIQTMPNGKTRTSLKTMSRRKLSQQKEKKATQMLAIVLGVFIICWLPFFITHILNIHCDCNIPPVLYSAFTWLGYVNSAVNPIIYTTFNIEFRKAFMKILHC
T1 sequence (P14842 whole entry): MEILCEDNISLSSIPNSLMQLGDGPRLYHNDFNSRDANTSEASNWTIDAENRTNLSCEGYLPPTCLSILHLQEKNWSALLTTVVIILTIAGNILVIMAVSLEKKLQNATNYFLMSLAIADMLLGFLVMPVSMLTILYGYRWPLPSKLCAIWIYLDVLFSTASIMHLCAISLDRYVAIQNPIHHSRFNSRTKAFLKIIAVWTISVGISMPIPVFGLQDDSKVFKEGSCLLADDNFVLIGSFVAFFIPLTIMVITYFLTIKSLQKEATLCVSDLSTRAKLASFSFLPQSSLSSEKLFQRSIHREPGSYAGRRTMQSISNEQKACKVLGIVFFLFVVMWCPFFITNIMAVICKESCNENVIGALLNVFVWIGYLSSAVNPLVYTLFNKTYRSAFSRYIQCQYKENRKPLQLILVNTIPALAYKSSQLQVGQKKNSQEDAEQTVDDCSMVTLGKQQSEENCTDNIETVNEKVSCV

SMILES | pIC50 (5-HT, rat fundus strip) | pIC50 (5-HT2 receptors) | ED50 (methylphenidate) [µmol/kg] | ED50 [1] [µmol/kg] | pIC50 (D-2 receptors)
OCCN1CC=C(C2=CC(c3ccc(F)cc3)c3ccc(C(F)(F)F)cc32)CC1 (centres unmarked) [Lu 20-004, 3-(4'-Fluorophenyl)-1-(1-hydroxyethyl-1,2,3,6-tetrahydropyrid-4-yl)-6-trifluoromethyl-1-indene, hydrobromide] | 5.49 | 7.46 | 1 | 1.3 | –
Cc1ccc2c(c1)C(C1=CCN(CCO)CC1)=CC2c1ccc(F)cc1 (centres unmarked) [Lu 19-153, 3-(4'-Fluorophenyl)-1-(1-hydroxyethyl-1,2,3,6-tetrahydropyrid-4-yl)-6-methyl-1-indene, hydrobromide] | 7.47 | 8.34 | 0.39 | 1.4 | –
Cc1ccc2c(c1)C(C1CCN(CCO)CC1)=CC2c1ccc(F)cc1 (centres unmarked) [Lu 20-008, 3-(4'-Fluorophenyl)-1-(1-hydroxyethyl-4-piperidyl)-6-methyl-1-indene, hydrochloride] | 7.80 | 8.40 | 0.64 | 2.3 | 8.05
OCCN1CCN(CC/C=C2/c3ccccc3Sc3ccc(C(F)(F)F)cc32)CC1 [Cis(Z)-flupentixol, reference compound] | 5.98 | 7.89 | 0.14 | 2.1 | –
O=C1NCCN1CCN1CCC(C2C=C(c3ccc(F)cc3)c3ccc(F)cc32)CC1 (centres unmarked) [Lu 20-053, 6-Fluoro-3-(4'-fluorophenyl)-1-(1-(2-imidazolidinon-1-ylethyl)-4-piperidyl)-2-indene] | 7.16 | 7.51 | 19.5 | > 94 | 7.08
CN1CCC(C2=CC(c3ccc(F)cc3)c3ccc(C(F)(F)F)cc32)CC1 (centres unmarked) [Lu 20-071, 3-(4'-Fluorophenyl)-1-(1-methyl-4-piperidyl)-6-trifluoromethyl-1-indene, hydrobromide] | 6.00 | 7.82 | 1.7 | 2 | –
O=C(c1ccc(F)cc1)C1CCN(CCn2c(=O)[nH]c3ccccc3c2=O)CC1 [Ketanserin, reference compound] | < 5.00 | – | – | – | 5.64
OCCN1CCC(C2=CC(c3ccc(F)cc3)c3ccc(F)cc32)CC1 (centres unmarked) [Lu 19-158, hydrochloride] | 7.59 | 8.55 | 4.2 | 26 | 7.92
CSc1ccc2c(c1)C(N1CCN(C)CC1)Cc1ccccc1S2 (centres unmarked) [Methiothepin, reference compound] | 7.24 | 8.17 | 2.5 | 2.3 | 8.59
